Assay results taken from article PMC5602538, “Assessment of the Drug Interaction Potential of Unconjugated and GalNAc3-Conjugated 2′-MOE-ASOs” (Molecular Therapy. Nucleic Acids, 2017).
{GalNAc3} = trishexylamino-C6 triantennary GalNAc conjugate; e = 2'-O-(2-methoxyethyl) (MOE); d = 2'-deoxy (DNA)

Key:
OCT2 = test system: T1, OCT2; experiment: OCT2 substrate uptake study in MDCK cells; type: in vitro ADME; settings: 10 μM ASO
T1 construct: expressed in transfected cells; host or cells: MDCK-II
Description: A 96-well cell culture plate containing a monolayer of MDCK-II cells grown on a permeable support and a corresponding receiver tray was used. The basolateral compartment of the culture plate and wells were washed with warm HBSS three times, with wells of the culture plate serving as the apical compartment. The wash was aspirated by adding 150 μL of 37°C HBSS to both compartments. Plates were incubated at 37°C with orbital shaking at 60 rpm for 15 min for OAT1, OAT3, OCT1, OCT2, OATP1B1, and OATP1B3 (±5 min). The pre-incubation buffer from both compartments was aspirated and 150 μL of the following was added to the basal compartment. For the probe substrate transport assay, HBSS in each well contained one of following probe substrates (positive control for transport), OCT1, 2 μM [^3H]-MPP^+; OCT2, 10 μM [^14C]-metformin; OAT1, 2 μM [^3H]-p-aminohippurate; OAT3, 10 μM [^3H]-p-aminohippurate; OATP1B1, 2 μM [^3H]-estradiol-17 β-D-glucuronide; and OATP1B3, 2 μM [^3H]-cholecystokinin octapeptide (CCK-8). […] Inhibition studies contained HBSS in each well, the probe substrate, and 100 μM of each test article, whereas substrate studies contained HBSS in each well and 10 μM of each test article. […] Samples containing probe substrate were added to 200 μL of scintillation fluid and counted on a 1450 Microbeta (PerkinElmer), whereas samples containing the test article were kept frozen. Test article concentrations, including control samples, were evaluated by an LC-MS method.
Signal to noise for probe substrates was calculated by dividing the uptake of the probe substrate in transporter-expressing cells by the uptake of probe substrate in control cells not expressing the transporter of interest. Percent inhibition was calculated by dividing the net-transporter-mediated substrate uptake in the presence of the test article or the reference inhibitor by the net-transporter-mediated substrate uptake in the absence of the inhibitor according to the equation: %inhibition=100−(100×(transporter-mediateduptake)withinhibitor/(transporter-mediateduptake)withoutinhibitor).

BCRP = test system: T2, BCRP; experiment: BCRP substrate study, bi-directional flux in MDCK cells; type: in vitro ADME; settings: 10 μM ASO, Papp B to A / Papp A to B
T2 construct: expressed in transfected cells; host or cells: MDCK-II cells
Description: MDCK-MDR1 cells and MDCK-II cells transfected with BCRP were washed with HBSS at 37°C. Wells of the culture plate served as the apical compartment, and 150 μL of HBSS solutions was added to the apical wells. These solutions also contain one of the following: vehicle (for probe substrate controls), 100 μM test article (for test article inhibition experiments), 1 μM Ko143 (for BCRP inhibition), or 3 μM elacridar (for P-gp inhibition). A 96-well receiver tray was prepared with each well containing 300 μL of buffer solution corresponding to the apical wells. Receiver tray wells served as the basal compartment. The plate and receiver tray were assembled and incubated at 37°C for 30 min. The solution was then aspirated from the apical compartment and the 96-well plate was removed from the receiver tray. Donor and receiver wells for inhibition or donor (containing substrate) and receiver (without substrate) wells for substrate studies were then prepared for bi-directional flux studies. For the probe substrate transport assays, HBSS in each donor well contained one of the following probe substrates: BCRP, 2 μM [^3H]-prazosin; or P-gp, 100 nM [^3H]-quinidine. For positive control inhibition assays, HBSS contained the reference inhibitor in both donor and receiver wells, with the probe substrate only in donor wells. […] These samples were counted on a 1450 Microbeta (PerkinElmer). For samples containing test articles, samples were quantitated using LC-MS.
For BCRP and P-gp, apparent permeability Papp was determined using the equation Papp=(Vr/(A×C0))×(Cr/Δt) whereby Papp is the apparent permeability, Vr is the volume of the receiver compartment (mL), C0 is the initial concentration of the donor solution, A is the monolayer area (cm^2), Cr is the receiver well concentration at the end of the incubation, and Δt represents the change in time from t = 0 (s). The efflux ratio (ER) was determined by dividing Papp in the B→A direction by that in the A→B direction as: ER=Papp(B→A)/Papp(A→B).

Row | Substance | OCT2-mediated uptake relative to corresponding controls (OCT2) [fold] | Efflux ratio, BCRP (BCRP)
1 | ISIS 304801: 20-mer (5-10-5) 2′-MOE gapmer PS backbone antisense inhibitor of apoC-III, sequence AGCTTCTTGTCCAGCTTTAT (sugars from the 5' end e5 d10 e5, all phosphorothioate, methylation of C not given here) | < 2 | ≤ 2.0
2 | ISIS 681257: 20-mer 2′-MOE gapmer PS/PO mixed backbone ASO conjugated to 5′-trishexylamino GalNAc3, targets Lp(a), sequence TGCTCCGTTGGTGCTTGTTC (5' {GalNAc3}, sugars by position and backbone not given here; 2'-MOE gapmer with mixed PS/PO backbone) | < 2 | ≤ 2.0
3 | ISIS 420915: 20-mer 2′-MOE gapmer PS backbone antisense inhibitor of transthyretin, sequence TCTTGGTTACATGAAATCCC (all phosphorothioate, sugars by position and methylation of C not given here; 2'-MOE gapmer) | < 2 | ≤ 2.0
